Laboratory results as given in paper PMC11589570, “Critical assessment of LC3/GABARAP ligands used for degrader development and ligandability of LC3/GABARAP binding pockets” (Nature Communications, 2024).
Where “and” joins values, the source holds several entries; their conditions need not be identical. Identical values can stand only once. Like-named read-outs stand apart in the source and are kept apart here.

Key:
[1] = molecular target: GABARAPL2 (Homo sapiens, UniProt P60520); details: for 3D Mapping code: molar ratio 1:2; for CSP: GABARAPL2:ligand molar ratio 1:2
GABARAPL2, sequence (P60520 whole entry): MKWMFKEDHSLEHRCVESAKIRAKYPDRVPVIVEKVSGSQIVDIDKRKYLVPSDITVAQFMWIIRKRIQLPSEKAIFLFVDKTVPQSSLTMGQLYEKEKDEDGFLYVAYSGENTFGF

[2] = molecular target: LC3B (Homo sapiens, UniProt Q9GZQ8); assay: FP assay with Cy5-labelled p62 LIR tracer (protein titration and tracer displacement); format: binding; details: for normalized FP signal, p62 LIR tracer displacement: LC3B; for compound titration LC3B (displacement curve, FP signal): two replicate columns per compound
[3] = log10 concentration [M] -3.82391
[4] = log10 concentration [M] -4.1549
[5] = log10 concentration [M] -4.60206
[6] = log10 concentration [M] -5.30103
[7] = log10 concentration [M] -5.69897
[8] = log10 concentration [M] -6.22185
[9] = log10 concentration [M] -6.69897
[10] = log10 concentration [M] -7.30103
[11] = log10 concentration [M] -7.79588
[12] = log10 concentration [M] -8.08092

SMILES: O=C1Nc2ccc(I)cc2C1=Cc1cc(Br)c(O)c(Br)c1 [compound 4]
- 3D Mapping code ([1]; residue K48): Blue
- CSP ([1]; residue K66): 0.020 ppm
- CSP ([1]; residue K74): 0.011 ppm
- CSP ([1]; residue K97): 0.012 ppm
- CSP ([1]; residue K99): 0.018 ppm
- CSP ([1]; residue L11): 0.016 ppm
- CSP ([1]; residue L50): 0.096 ppm
- 3D Mapping code ([1]; residue L50): Blue
- CSP ([1]; residue L70): 0.006 ppm
- CSP ([1]; residue L78): 0.006 ppm
- CSP ([1]; residue L105): 0.060 ppm
- 3D Mapping code ([1]; residue L105): Orange
- CSP ([1]; residue M1): 0.010 ppm
- CSP ([1]; residue M61): 0.015 ppm
- CSP ([1]; residue N113): 0.00264 ppm
- CSP ([1]; residue P26, estimated): 0.050 ppm
- 3D Mapping code ([1]; residue P26): Light green
- CSP ([1]; residue P30, estimated): 0.110 ppm
- 3D Mapping code ([1]; residue P30): Blue
- CSP ([1]; residue P52, estimated): 0.070 ppm
- 3D Mapping code ([1]; residue P52): Blue
- CSP ([1]; residue P71, estimated): 0.010 ppm
- CSP ([1]; residue Q40): 0.017 ppm
- CSP ([1]; residue Q59): 0.016 ppm
- CSP ([1]; residue Q69): 0.020 ppm
- CSP ([1]; residue R14): 0.091 ppm
- 3D Mapping code ([1]; residue R14): Orange
- CSP ([1]; residue R22): 0.083 ppm
- 3D Mapping code ([1]; residue R22): Orange
- CSP ([1]; residue R28): 0.064 ppm
- 3D Mapping code ([1]; residue R28): Orange
- CSP ([1]; residue R47, estimated): 0.100 ppm
- 3D Mapping code ([1]; residue R47): Blue
- CSP ([1]; residue R65): 0.008 ppm
- CSP ([1]; residue R67): 0.00158 ppm
- CSP ([1]; residue S10): 0.019 ppm
- CSP ([1]; residue S18): 0.021 ppm
- CSP ([1]; residue S37): 0.030 ppm
- 3D Mapping code ([1]; residue S37): Light green
- CSP ([1]; residue S39): 0.017 ppm
- CSP ([1]; residue S53): 0.076 ppm
- 3D Mapping code ([1]; residue S53): Orange
- CSP ([1]; residue S72): 0.004 ppm
- CSP ([1]; residue S110): 0.010 ppm
- CSP ([1]; residue T56): 0.008 ppm
- CSP ([1]; residue T114): 0.00144 ppm
- CSP ([1]; residue V16): 0.051 ppm
- 3D Mapping code ([1]; residue V16): Light green
- CSP ([1]; residue V29): 0.102 ppm
- 3D Mapping code ([1]; residue V29): Blue
- CSP ([1]; residue V31): 0.128 ppm
- 3D Mapping code ([1]; residue V31): Blue
- CSP ([1]; residue V33): 0.064 ppm
- 3D Mapping code ([1]; residue V33): Orange
- CSP ([1]; residue V36): 0.024 ppm
- CSP ([1]; residue V42): 0.00232 ppm
- CSP ([1]; residue V51): 0.077 ppm
- 3D Mapping code ([1]; residue V51): Blue
- CSP ([1]; residue V57): 0.024 ppm
- CSP ([1]; residue V80): 0.028 ppm
- 3D Mapping code ([1]; residue V80): Light green
- CSP ([1]; residue V107): 0.039 ppm
- 3D Mapping code ([1]; residue V107): Light green
- CSP ([1]; residue W3): 0.022 ppm
- CSP ([1]; residue W62): 0.016 ppm
- CSP ([1]; residue Y25): 0.085 ppm
- 3D Mapping code ([1]; residue Y25): Orange
- CSP ([1]; residue Y49): 0.148 ppm
- 3D Mapping code ([1]; residue Y49): Blue
- CSP ([1]; residue Y106): 0.097 ppm
- 3D Mapping code ([1]; residue Y106): Orange
- CSP ([1]; residue Y109): 0.012 ppm
- normalized FP signal, p62 LIR tracer displacement [2, 3]: 84.7368
- normalized FP signal, p62 LIR tracer displacement [2, 4]: 89.2105
- normalized FP signal, p62 LIR tracer displacement [2, 5]: 90.7895
- normalized FP signal, p62 LIR tracer displacement ([2]; log10 concentration [M] -5): 95
- normalized FP signal, p62 LIR tracer displacement [2, 6]: 93.9474 and 101.579
- normalized FP signal, p62 LIR tracer displacement [2, 7]: 91.0526
- normalized FP signal, p62 LIR tracer displacement [2, 8]: 96.5789
- normalized FP signal, p62 LIR tracer displacement [2, 9]: 94.2105 and 95.5263
- normalized FP signal, p62 LIR tracer displacement [2, 10]: 96.3158 and 90.2632
- normalized FP signal, p62 LIR tracer displacement [2, 11]: 96.5789
- normalized FP signal, p62 LIR tracer displacement [2, 12]: 96.0526 and 95.2632
- compound titration LC3B (displacement curve, FP signal) [2, 3]: 84.7368 and 89.4737
- compound titration LC3B (displacement curve, FP signal) [2, 4]: 89.4737 and 89.2105
- compound titration LC3B (displacement curve, FP signal) [2, 5]: 90.7895 and 93.1579
- compound titration LC3B (displacement curve, FP signal) ([2]; log10 concentration [M] -5): 95 and 100.526
- compound titration LC3B (displacement curve, FP signal) [2, 6]: 93.9474 and 101.579
- compound titration LC3B (displacement curve, FP signal) [2, 7]: 91.0526
- compound titration LC3B (displacement curve, FP signal) [2, 8]: 96.5789 and 94.4737
- compound titration LC3B (displacement curve, FP signal) [2, 9]: 94.2105 and 95.5263
- compound titration LC3B (displacement curve, FP signal) [2, 10]: 96.3158 and 90.2632
- compound titration LC3B (displacement curve, FP signal) [2, 11]: 93.1579 and 96.5789
- compound titration LC3B (displacement curve, FP signal) [2, 12]: 96.0526 and 95.2632
